Assay results reported in patent publication US12370208B2, “Adenosine derivative and pharmaceutical composition comprising the same” (Brii Biosciences, Inc., priority 2019, dated 2025).
“And” between values parts separate entries of the source, which are not always exact repeats. Equal entries are not always repeated.

Key:
[1] = Plasma exposures following oral administration to beagle dogs
[2] = Plasma stability and conversion to EFdA in human plasma; type: in vitro ADME
Protocol: The pooled frozen plasma was thawed in a water bath at 37° C. prior to experiment. Plasma was centrifuged at 4000 rpm for 5 min and the clots were removed if any. The pH will be adjusted to 7.4±0.1 if required.
Preparation of test compounds and positive control (propantheline bromide): 1 mM intermediate solution was prepared by diluting 10 μL of the stock solution with 90 μL MeOH; 1 mM intermediate of positive control Propantheline was prepared by diluting 10 μL of the stock solution with 90 μL ultrapure water. 100 μM dosing solution was prepared by diluting 20 μL of the intermediate solution (1 mM) with 180 μL MeOH. 98 μL of blank plasma was spiked with 2 μL of dosing solution (100 μM) to achieve 2 μM of the final concentration in duplicate and samples were incubated at 37° C. in a water bath. At each time point (0, 10, 30, 60 and 120 min), 400 μL of stop solution (0.1% FA in MeOH containing 200 ng/mL tolbutamide and 200 ng/mL Labetalol) was added to precipitate protein and mixed thoroughly. Centrifuged sample plates at 4,000 rpm for 10 min. An aliquot of supernatant (100 μL) was transferred from each well to another plates.
Data analysis: The % remaining of test compound after incubation in plasma was calculated using following equation: % Remaining=100×(PAR at appointed incubation time/PAR at T0 time) where PAR is the peak area ratio of analyte versus internal standard (IS) (LC/MS/MS mobile phase condition: 0.1% Formic Acid in Water/0.1% Formic Acid in Acetonitrile. The appointed incubation time points are T0 (0 min), Tn (n=0, 10, 30, 60, 120 min). Liver S9 Stability

[3] = Liver S9 stability and conversion to EFdA in human liver S9; type: in vitro ADME; conditions: for Stability in Human Liver S9 Half-life: human liver S9, 37° C.; for Conversion to the target drug: liver S9 assay
Protocol: Intermediate solution: Dilute 5 μL of compounds or controls (7-ethoxycoumarin) from stock solution (10 mM) with 495 μL MeOH (Conc.: 100 μM, 1% DMSO, 99% MeOH). Stop solution: Cold ACN (including 100 ng/mL Tolbutamide and Labetalol as internal standard). Add 2 μL test compound or control working solution/well to all plates (T0, T5, T10, T20, T30, T60, NCF60) except matrix blank. Add 600 μL/well stop solution (cold in 4° C., including 100 ng/mL Tolbutamide/100 ng/mL Labetalol) to terminate the T0 plate, then put it on ice. Dispense 840 μL/well S9 solution to 96-well plate as reservoir according to plate map. Then add 100 μL/well to every plate by Apricot. Incubate S9 solution and compound at 37° C. for about 10 min except NCF60 and TO. After adding S9 solution and 98 μL PB buffer to NCF60, incubate at 37° C. without pre-warming, start timer 1. After 60 min, add 600 μL/well stop solution to terminate the reaction. After pre-warming, dispense 760 μL/well cofactor solution to 96-well plate as reservoir according to plate map. Then add 98 μL/well to every plate by Apricot to start reaction. Incubate at 37° C., start timer 2, Add 600 μL/well stop solution (cold in 4° C., including 100 ng/mL Tolbutamide and Labetalol) to terminate the reaction. Samples are centrifuged at 4000 rpm for 20 min. While centrifuging, load 8×new 96-well plate with 300 μL HPLC water, then transfer 100 μL supernatant, mix with water for LC/MS/MS, transferred to Bioanalytical Services for LC-MS/MS analysis. Use equation of first order kinetics to calculate t1/2 and CL: Equation of first order kinetics: […]

[4] = Prodrug formula 4-A PO 8.25 mg/kg, 12.0 hrs, individual animals 2001-2003
[5] = Prodrug formula 4-A PO 8.25 mg/kg, 24.0 hrs, individual animals 2001-2003

For `C#C[C@]1(CO)O[C@@H](n2cnc3c(N)nc(F)nc32)C[C@@H]1O` [EFdA, (2R,3S,5R)-5-(6-amino-2-fluoro-9H-purin-9-yl)-2-ethynyl-2-(hydroxymethyl)tetrahydrofuran-3-ol, reference compound], the “EFdA Concentrations in Dog Plasma” value ([1]; EFdA PO 5 mg/kg, 6.00 hrs, individual animals 4001-4003) was “BQL”, the “EFdA Concentrations in Dog Plasma” value ([1]; EFdA PO 5 mg/kg, 8.00 hrs, individual animals 4001-4003) was “BQL” and the “EFdA Concentrations in Dog Plasma” value ([1]; EFdA PO 5 mg/kg, 12.0 hrs, individual animals 4001-4003) was “BQL”. For the same compound, the “EFdA Concentrations in Dog Plasma” value ([1]; EFdA PO 5 mg/kg, 24.0 hrs, individual animals 4001-4003) was “BQL”, the “EFdA Exposure in Plasma Cmax” value ([1]; oral EFdA 5 mg/kg, dogs) was 392 ng/mL and the “EFdA Exposure in Plasma AUC” value ([1]; oral EFdA 5 mg/kg, dogs, AUC0-24 h) was 792 ng·h/mL.

With `C#C[C@]1(COC(=O)NC(C)C)O[C@@H](n2cnc3c(N)nc(F)nc32)C[C@@H]1O` [Formula 2-A, ((2R,3S,5R)-5-(6-amino-2-fluoro-9H-purin-9-yl)-2-ethynyl-3-hydroxytetrahydrofuran-2-yl)methyl isopropylcarbamate] the “Stability in Human Plasma Formation of EFdA” value [2] was “No” and the “Stability in Human Liver S9 Formation of EFdA” value [3] was “No”.

In the case of `C#C[C@]1(CO)O[C@@H](n2cnc3c(NC(=O)OC(C)C)nc(F)nc32)C[C@@H]1O` [Formula 3-A, isopropyl (9-((2R,4S,5R)-5-ethynyl-4-hydroxy-5-(hydroxymethyl)tetrahydrofuran-2-yl)-2-fluoro-9H-purin-6-yl)carbamate], the “Stability in Human Plasma Formation of EFdA” value [2] is reported as “No”, the “Stability in Human Liver S9 Formation of EFdA” value [3] is reported as “No” and the “Stability in Human Liver S9 Half-life” value [3] is reported as “B (B: 50-200 minutes)”.

For `C#C[C@]1(COC(=O)OCc2oc(=O)oc2C)O[C@@H](n2cnc3c(N)nc(F)nc32)C[C@@H]1O` [Formula 4-A, ((2R,3S,5R)-5-(6-amino-2-fluoro-9H-purin-9-yl)-2-ethynyl-3-hydroxytetrahydrofuran-2-yl)methyl((5-methyl-2-oxo-1,3-dioxol-4-yl)methyl) carbonate], the “Stability in Human Plasma Formation of EFdA” value [2] was “Yes”, the “Conversion to the target drug” value ([2]; human plasma assay) was “can be converted to the target drug efficiently” and the “Stability in Human Liver S9 Formation of EFdA” value [3] was “Yes”. The “Conversion to the target drug” value [3] was “can be converted to the target drug efficiently”, the “AUC compared with a dose-equivalent EFdA” value ([1]; EFdA in dog plasma, oral) was “higher” and the “Cmax compared with a dose-equivalent EFdA” value ([1]; EFdA in dog plasma, oral) was “higher”. For the same compound, the “Prodrug formula 4-A Concentrations in Dog Plasma” value ([1]; Prodrug formula 4-A PO 8.25 mg/kg, 0.250 hrs, individual animals 2001-2003, 8.25 mg/kg) was 1.13 ng/mL and 1.63 ng/mL and 1.09 ng/mL, the “Prodrug formula 4-A Concentrations in Dog Plasma, Mean” value ([1]; Prodrug formula 4-A PO 8.25 mg/kg, 0.250 hrs, mean of 3 dogs) was 1.28 ng/mL and the “Prodrug formula 4-A Concentrations in Dog Plasma, Mean” value ([1]; Prodrug formula 4-A PO 8.25 mg/kg, 0.500 hrs, Mean column (one animal above BQL)) was 1.68 ng/mL. The “Prodrug formula 4-A Concentrations in Dog Plasma” value ([1]; Prodrug formula 4-A PO 8.25 mg/kg, 0.500 hrs, individual animals 2001-2003, 8.25 mg/kg) was “BQL (2×) and 1.68 ng/mL”, the “Prodrug formula 4-A Concentrations in Dog Plasma, Mean” value ([1]; Prodrug formula 4-A PO 8.25 mg/kg, 1.00 hrs, Mean column (one animal above BQL)) was 1.43 ng/mL and the “Prodrug formula 4-A Concentrations in Dog Plasma” value ([1]; Prodrug formula 4-A PO 8.25 mg/kg, 1.00 hrs, individual animals 2001-2003, 8.25 mg/kg) was “BQL (2×) and 1.43 ng/mL”. The “Prodrug formula 4-A Concentrations in Dog Plasma” value ([1]; Prodrug formula 4-A PO 8.25 mg/kg, 2.00 hrs, individual animals 2001-2003) was “BQL”, the “Prodrug formula 4-A Concentrations in Dog Plasma” value ([1]; Prodrug formula 4-A PO 8.25 mg/kg, 4.00 hrs, individual animals 2001-2003) was “BQL” and the “Prodrug formula 4-A Concentrations in Dog Plasma” value ([1]; Prodrug formula 4-A PO 8.25 mg/kg, 6.00 hrs, individual animals 2001-2003) was “BQL”. For the same compound, the “Prodrug formula 4-A Concentrations in Dog Plasma” value ([1]; Prodrug formula 4-A PO 8.25 mg/kg, 8.00 hrs, individual animals 2001-2003) was “BQL”, the “EFdA Concentrations in Dog Plasma” value [1, 4] was “BQL” and the “Prodrug formula 4-A Concentrations in Dog Plasma” value [1, 4] was “BQL”. The “EFdA Concentrations in Dog Plasma” value [1, 5] was “BQL”, the “Prodrug formula 4-A Concentrations in Dog Plasma” value [1, 5] was “BQL” and the “Prodrug detected in the systemic circulation” value ([1]; dogs, oral) was “minimal”.

For `C#C[C@]1(COC(=O)OCc2oc(=O)oc2C)O[C@@H](n2cnc3c(N)nc(F)nc32)C[C@@H]1OC(=O)OCc1oc(=O)oc1C` [Formula 4-C, [(2R,3S,5R)-5-(6-amino-2-fluoro-purin-9-yl)-2-ethynyl-2-[(5-methyl-2-oxo-1,3-dioxol-4-yl)methoxycarbonyloxymethyl]tetrahydrofuran-3-yl] (5-methyl-2-oxo-1,3-dioxol-4-yl)methyl carbonate], the “Conversion to the target drug” value [2] was “can be converted to the target drug efficiently”, the “Stability in Human Plasma Formation of EFdA” value [2] was “Yes” and the “Stability in Human Liver S9 Formation of EFdA” value [3] was “Yes”. For the same compound, the “Stability in Human Liver S9 Half-life” value [3] was “C (C: <50 minutes)” and the “Conversion to the target drug” value [3] was “can be converted to the target drug efficiently”.

With `C#C[C@]1(COC(=O)NC)O[C@@H](n2cnc3c(N)nc(F)nc32)C[C@@H]1O` [Formula 5-A, ((2R,3S,5R)-5-(6-amino-2-fluoro-9H-purin-9-yl)-2-ethynyl-3-hydroxytetrahydrofuran-2-yl)methyl methylcarbamate] the “Stability in Human Plasma Formation of EFdA” value [2] was “No” and the “Stability in Human Liver S9 Formation of EFdA” value [3] was “No”.

In the case of `C#C[C@]1(CO)O[C@@H](n2cnc3c(NCc4oc(=O)oc4C)nc(F)nc32)C[C@@H]1O` [Formula 6-A, 4-(((9-((2R,4S,5R)-5-ethynyl-4-hydroxy-5-(hydroxymethyl)tetrahydrofuran-2-yl)-2-fluoro-9H-purin-6-yl)amino)methyl)-5-methyl-1,3-dioxol-2-one], the “Stability in Human Plasma Formation of EFdA” value [2] is reported as “No”, the “Stability in Human Liver S9 Formation of EFdA” value [3] is reported as “Yes” and the “Conversion to the target drug” value [3] is reported as “can be converted to the target drug efficiently”.

For `C#C[C@]1(COC(=O)NCCN(C)Cc2oc(=O)oc2C)O[C@@H](n2cnc3c(N)nc(F)nc32)C[C@@H]1O` [Formula 7-A, ((2R,3S,5R)-5-(6-amino-2-fluoro-9H-purin-9-yl)-2-ethynyl-3-hydroxytetrahydrofuran-2-yl)methyl (2-(methyl((5-methyl-2-oxo-1,3-dioxol-4-yl)methyl)amino)ethyl)carbamate], the “Stability in Human Plasma Formation of EFdA” value [2] was “No” and the “Stability in Human Liver S9 Formation of EFdA” value [3] was “No”.
